Values joined by “and” are separate entries in the source; they are usually repeats but may differ in a detail not shown here. Equal entries are not always repeated. Peptide text beside a SMILES is read from it.
Test system: erythrocytes infected with 3D7 trophozoites
Format: cell-based, Plasmodium falciparum
Details: sheet Ratio; for Ratio of metabolite abundance, Exp1_1hr: Exp1, 1hr; for Ratio of metabolite abundance, Exp1_3hr: Exp1, 3hr; for Ratio of metabolite abundance, Exp1_6hr: Exp1, 6hr; for Ratio of metabolite abundance, Exp2_1hr: Exp2, 1hr; for Ratio of metabolite abundance, Exp2_3hr: Exp2, 3hr; for Ratio of metabolite abundance, Exp2_6hr: Exp2, 6hr; for Ratio of metabolite abundance, Exp3_1hr: Exp3, 1hr; for Ratio of metabolite abundance, Exp3_3hr: Exp3, 3hr; for Ratio of metabolite abundance, Exp3_6hr: Exp3, 6hr

| SMILES | Ratio of metabolite abundance, Exp1_1hr | Ratio of metabolite abundance, Exp1_3hr | Ratio of metabolite abundance, Exp1_6hr | Ratio of metabolite abundance, Exp2_1hr | Ratio of metabolite abundance, Exp2_3hr | Ratio of metabolite abundance, Exp2_6hr | Ratio of metabolite abundance, Exp3_1hr | Ratio of metabolite abundance, Exp3_3hr | Ratio of metabolite abundance, Exp3_6hr |
| --- | --- | --- | --- | --- | --- | --- | --- | --- | --- |
| O=C(O)CCC(O)C(=O)O (stereo not drawn) [2-Hydroxyglutarate] | 0.7468 | 0.6009 | 0.699 | 0.8783 | 0.8007 | 0.7015 | 0.9193 | 0.5841 | 0.9208 |
| O=C(O)CCC(=O)C(=O)O [2-Ketoglutarate] | 0.5638 | 0.5076 | 0.5229 | 1.061 | 0.5178 | 0.7675 | 0.6752 | 0.6868 | 0.9353 |
| O=C(O)[C@H](O)COP(=O)(O)O [3-Phosho-D-glycerate] | 0.9975 | 1.1161 | 1.013 | 1.017 | 0.9815 | 1.001 | 0.9949 | 1.065 | 1.039 |
| N[C@@H](COP(=O)(O)O)C(=O)O [3-Phospho-serine] | 0.7768 | 0.7478 | 0.6073 | 1.092 | 0.7496 | 0.7836 | 0.6617 | 0.7708 | 0.5594 |
| NCCCC(=O)O [4-Aminobutanoate] | 3.908 | 0.7769 | 1.748 | 3.257 | 2.342 | 1.761 | 0.9389 | 3.211 | 3.145 |
| O=P(O)(O)OC[C@H]1OC(OP(=O)(O)OP(=O)(O)O)[C@H](O)[C@@H]1O (stereo partly drawn) [5-Phosphoribosyl-1-pyrophosphate] | 1.134 | 1.199 | 1.224 | 2.035 | 1.2624 | 1.3078 | 0.8985 | 1.899 | 1.985 |
| O=C(O)[C@H](O)[C@@H](O)[C@H](O)[C@H](O)COP(=O)(O)O [6-Phospho-D-gluconate] | 1.0502 and 0.8295 | 0.8826 and 0.6724 | 0.7609 and 0.6355 | 0.8989 and 0.6621 | 0.8049 and 0.5841 | 0.8315 and 0.5366 | 0.955 and 0.8159 | 0.8757 and 0.6904 | 0.7181 and 0.6347 |
| Nc1ncnc2c1ncn2[C@@H]1O[C@H](COP(=O)(O)OP(=O)(O)O)[C@@H](O)[C@H]1O [ADP] | 0.7745 | 0.4477 | 0.5852 | 1.167 | 0.7455 | 0.8713 | 0.9108 | 0.6751 | 1.045 |
| Nc1ncnc2c1ncn2[C@@H]1O[C@H](COP(=O)(O)O)[C@@H](O)[C@H]1O [AMP] | 0.6651 | 0.4095 | 0.7534 | 1.745 | 0.5002 | 0.6205 | 1.254 | 1.491 | 1.967 |
| CC(C)C[C@H](NC(=O)[C@@H](NC(=O)[C@H](C)N)[C@@H](C)O)C(=O)N[C@@H](CO)C(=O)O [ATLS] (H-ATLS-OH) | 1.05 | 0.6654 | 0.8386 | 1.031 | 0.8993 | 0.9335 | 1.05 | 1.026 | 0.9156 |

— article PMC5298231, “The Malaria Parasite's Lactate Transporter PfFNT Is the Target of Antiplasmodial Compounds Identified in Whole Cell Phenotypic Screens” (PLoS Pathogens, 2017)
